Test results taken from ChEMBL document CHEMBL4602715, “Efficacy and Tolerability of Pyrazolo[1,5-a]pyrimidine RET Kinase Inhibitors for the Treatment of Lung Adenocarcinoma” (ACS Med Chem Lett, 2020).

Key:
[1] = Oral bioavailability in BALB/c mouse at 20 mg/kg measured upto 24 hrs by LC-MS/MS analysis; type: ADME, organism-based; conditions: in vivo
[2] = AUC in BALB/c mouse at 20 mg/kg, po measured upto 24 hrs by LC-MS/MS analysis; type: ADME, organism-based; design: dose 20 mg/kg, time < 24 hr, route oral; conditions: in vivo
[3] = Cmax in BALB/c mouse at 20 mg/kg, po measured upto 24 hrs by LC-MS/MS analysis; type: ADME, organism-based; design: dose 20 mg/kg, route oral; conditions: in vivo
[4] = Half life in BALB/c mouse at 20 mg/kg, po measured upto 24 hrs by LC-MS/MS analysis; type: ADME, organism-based; conditions: in vivo
[5] = Ratio of AUC in BALB/c mouse brain to plasma at 20 mg/kg, po measured upto 24 hrs by LC-MS/MS analysis; type: ADME, organism-based; conditions: brain and plasma
[6] = Ratio of Cmax in BALB/c mouse brain to plasma at 20 mg/kg, po measured upto 24 hrs by LC-MS/MS analysis; type: ADME, organism-based; conditions: brain and plasma
[7] = Toxicity in Harlan Foxn1 nude mouse xenografted with rat RIE cells transfected with KIF5B/RET assessed as reduction in body weight at 30 to 60 mg/kg, po qd for 14 days; type: organism-based; conditions: in vivo, 336 h
[8] = Toxicity in Harlan Foxn1 nude mouse xenografted with rat RIE cells transfected with KIF5B/RET assessed as reddish mottled appearance of lungs at 30 to 60 mg/kg, po qd for 14 days; type: organism-based; conditions: in vivo, 336 h
[9] = Toxicity in Harlan Foxn1 nude mouse xenografted with rat RIE cells transfected with KIF5B/RET assessed as lung collapse at 30 to 60 mg/kg, po qd for 14 days; type: organism-based; conditions: in vivo, 336 h
[10] = Toxicity in Harlan Foxn1 nude mouse xenografted with rat RIE cells transfected with KIF5B/RET assessed as signs of hemorrhaging at 30 to 60 mg/kg, po qd for 14 days; type: organism-based; conditions: in vivo, 336 h
[11] = Toxicity in Harlan Foxn1 nude mouse xenografted with rat RIE cells transfected with KIF5B/RET at 10 mg/kg, po qd for 14 days; type: organism-based; conditions: in vivo, 336 h
[12] = Toxicity in Harlan Foxn1 nude mouse xenografted with rat RIE cells transfected with KIF5B/RET at 1 to 10 mg/kg, po qd for 10 days; type: organism-based; conditions: in vivo, 240 h
[13] = Toxicity in NSG mouse xenografted with human LC2/ad cells assessed as body weight loss at 10 mg/kg, po qd for 21 days measured following drug dosing termination on day 24; type: organism-based; conditions: in vivo, 504 h
[14] = Toxicity in NSG mouse xenografted with human LC2/ad cells assessed as necropsy in kidneys at 10 mg/kg, po qd for 21 days measured following drug dosing termination on day 24; type: organism-based; conditions: in vivo, 504 h
[15] = Drug uptake in plasma of Harlan Foxn1 nude mouse xenografted with rat RIE cells transfected with KIF5B/RET at 1 to 10 mg/kg, po qd for 10 days by LC-MS/MS analysis; type: ADME, organism-based; conditions: in vivo, 240 h

COc1ccc(-c2cnn3c(N)c(-c4ccccc4)c(NC4CC(C)(C)N(C)C(C)(C)C4)nc23)cc1OC.Cl
bioavailability [1]: 94% | AUC at 24 h [2]: 12 µM·h | Cmax [3]: 0.73 µM | half-life [4]: 11 h | Kp at 24 h [5]: 0.94 | Kp at 24 h [6]: 0.81 | Activity [7]: Toxic | Activity [8]: Toxic | Activity [9]: Toxic | Activity [10]: Toxic | Activity [11]: Non-Toxic | Activity [12]: Non-Toxic | Activity [13]: Toxic | Activity [14]: Toxic | Drug uptake [15]: Active
